Data from patent US20100093701A1, “COMBINATION THERAPY COMPRISING ANGIOTENSIN RECEPTOR BLOCKERS AND VASOPRESSIN RECEPTOR ANTAGONISTS” (priority 2008, published 2010).

Key:
rat remnant kidney model [1] = assay: Efficacy in rat remnant kidney model of nephropathy (renal mass reduction); format: in vivo; details: for Mortality Rates in Remnant Kidney Model / Mortality compared to the vehicle treated group: in drinking water; for Mortality Rates in Remnant Kidney Model: started 21 days after RMR, n=12/group; for Mortality compared to the vehicle treated group: Compound 1 30 mg/kg/d, losartan 10 mg/kg; for percentage of sclerotic glomeruli compared with vehicle: renal histology at termination of the experiment; for number of ED 1 positive cells per field (monocytes/macrophages in the renal interstitium): renal histology at termination, not statistically significant vs vehicle (61±5)
Text: (§1) The rat remnant kidney model is an animal model of severe progressive renal failure. In this model, a state of severe progressive renal failure is produced by renal mass reduction (RMR) through removal of one kidney and ligation of several branches of the renal artery, resulting in infarction and loss of function of two thirds of the remaining kidney. The procedure creates the conditions of severe hypertension, proteinuria, progressive renal function deterioration, tubulointerstitial damage and glomerulosclerosis (Olson J L, Hostetter T H, Rennke H G, Brenner B M, Venkatachalam M A: “Altered glomerular permselectivity and progressive sclerosis following extreme ablation of renal mass”. Kidney Int 22:112-126, 1982).
Nephropathy is evident as a progressively increasing amount of protein in urine, increases in serum creatinine and increases in arterial pressure. In addition, severe sclerosis of the glomeruli, inflammatory cell infiltration and tubular damage are measurable through histological analysis within 3 months of RMR. These measures form the basis for determining efficacy in the model. Urine protein, serum creatinine and arterial pressure are similarly measured in humans to determine impact of treatments on disease progression.
The aim of this study was to evaluate the effects of Compound 1 compared to an angiotensin receptor blocker (losartan), as well as the combination treatment with Compound 1 and losartan, on proteinuria and renal disease progression in this model. The effectiveness of these agents has been associated with reductions in proteinuria, slowing of the rate of rise in serum creatinine and reduction in glomerular sclerosis and thus slowing of the progression to end stage renal failure.
(§2) Treatment groups (n=12/group) included vehicle; Compound 1 at 30 mg/kg/d; losartan at 10 mg/kg; and losartan at 10 mg/kg+Compound 1 at 30 mg/kg/d. All compounds were administered in drinking water. An additional sham-operated untreated group was also included. Measurements were made at 21 d after RMR but before treatment, and at one and two months of treatment.
At the termination of the experiment kidneys were examined quantitatively for histopathological damage. […] Accumulation of monocytes/macrophages in the renal interstitium was quantified as the number of ED 1 (an antibody to CD68, a monocyte/macrophage specific antigen) positive cells per field.

rat remnant kidney model [2] = assay: Blood pressure in rat remnant kidney model; format: in vivo; details: 1- and 2-months of treatment
Text: as §1
as §2, with “Treatments were started 21 days after RMR, when animals already had overt nephropathy. Treatment” for “Treatment”, “treatment. Mortality was less in the Compound 1, losartan and Compound 1+ losartan groups compared to the vehicle treated group (Table 1). […]” for “treatment.”

remnant kidney model = assay: Water intake and diuresis in remnant kidney model; format: in vivo, rat; details: mean ± S.E.
Text: as §1, §2

[3] = 2 month of treatment, n = 10, 10 and 11
[4] = Pre-treatment (21 d after RMR), n = 12

Which “Mortality Rates in Remnant Kidney Model” value (rat remnant kidney model [1]; 1 month of treatment) does the source give for CCCCc1nc(Cl)c(CO)n1Cc1ccc(-c2ccccc2-c2nn[nH]n2)cc1 [losartan] here?
The value was 12/12.

What about the “Mortality Rates in Remnant Kidney Model” value (rat remnant kidney model [1]; 2 month of treatment) of the same compound?
Its value is 2/12.

And the “Mortality compared to the vehicle treated group” value (rat remnant kidney model [1])?
Its value is “less”.

And the “serum creatinine compared to the vehicle group” value (rat remnant kidney model [1]; at 1 and 2 months of treatment)?
Its value is “reduced”.

What about the “statistical significance of the effect on urine protein excretion” value (rat remnant kidney model [1]; at 1 and 2 months of treatment) of the same compound?
Its value is “not statistically significant”.

What about the “urine protein excretion compared to the vehicle group” value (rat remnant kidney model [1]; at 1 and 2 months of treatment) of the same compound?
The value was “reduced”.

And the “percentage of sclerotic glomeruli compared with vehicle” value (rat remnant kidney model [1])?
The value was “significant reduction”.

And the “number of ED 1 positive cells per field (monocytes/macrophages in the renal interstitium)” value (rat remnant kidney model [1])?
The value was 38±6 positive cells per field.

What about the “arterial pressure compared to vehicle” value (rat remnant kidney model [2]) of the same compound?
The value was “statistically significant decrease”.

And the diuresis (remnant kidney model; 1 month of treatment, n = 12)?
The diuresis was 45 ± 3 mL/24 h.

What about the water intake (remnant kidney model; 1 month of treatment, n = 12) of the same compound?
The water intake was 77 ± 4 mL/24 h.

And the diuresis (remnant kidney model; [3])?
The diuresis was 45 ± 4 mL/24 h.

And the water intake (remnant kidney model; [3])?
Its water intake is 76 ± 5 mL/24 h.

And the diuresis (remnant kidney model; [4])?
The diuresis was 45 ± 3 mL/24 h.

What about the water intake (remnant kidney model; [4]) of the same compound?
Its water intake is 68 ± 4 mL/24 h.

What about the diuresis (remnant kidney model; basal, n = 12) of the same compound?
Its diuresis is 20 ± 1 mL/24 h.

And the water intake (remnant kidney model; basal, n = 12)?
Its water intake is 46 ± 2 mL/24 h.

COc1cc(C(=O)N2CC[C@]3(C=C(C(=O)O)CC3)Cc3ccccc32)ccc1NC(=O)c1cc(F)ccc1Cl [Compound 1] was tested. Which “Mortality Rates in Remnant Kidney Model” value (rat remnant kidney model [1]; 1 month of treatment) did it give?
Its value is 12/12.

What about the “Mortality Rates in Remnant Kidney Model” value (rat remnant kidney model [1]; 2 month of treatment) of the same compound?
The value was 2/12.

And the “Mortality compared to the vehicle treated group” value (rat remnant kidney model [1])?
Its value is “less”.

And the “serum creatinine compared to the vehicle group” value (rat remnant kidney model [1]; at 1 and 2 months of treatment)?
Its value is “reduced”.

What about the “urine protein excretion compared to the vehicle group” value (rat remnant kidney model [1]; at 1 and 2 months of treatment) of the same compound?
Its value is “reduced”.

And the “percentage of sclerotic glomeruli compared with vehicle” value (rat remnant kidney model [1])?
Its value is “tended to decrease”.

What about the “number of ED 1 positive cells per field (monocytes/macrophages in the renal interstitium)” value (rat remnant kidney model [1]) of the same compound?
Its value is 45±5 positive cells per field.

What about the “arterial pressure compared to vehicle” value (rat remnant kidney model [2]) of the same compound?
Its value is “tended to decrease”.

What about the diuresis (remnant kidney model; 1 month of treatment, n = 12) of the same compound?
The diuresis was 47 ± 4 mL/24 h.

What about the water intake (remnant kidney model; 1 month of treatment, n = 12) of the same compound?
The water intake was 70 ± 8 mL/24 h.

And the diuresis (remnant kidney model; [3])?
Its diuresis is 43 ± 5 mL/24 h.

What about the water intake (remnant kidney model; [3]) of the same compound?
Its water intake is 72 ± 10 mL/24 h.

And the diuresis (remnant kidney model; [4])?
The diuresis was 44 ± 3 mL/24 h.

What about the water intake (remnant kidney model; [4]) of the same compound?
Its water intake is 65 ± 2 mL/24 h.

What about the diuresis (remnant kidney model; basal, n = 12) of the same compound?
The diuresis was 19 ± 1 mL/24 h.

And the water intake (remnant kidney model; basal, n = 12)?
The water intake was 43 ± 2 mL/24 h.
